Test systems include NCI/ADR-RES ovarian; MALME-3M melanoma; DU-145 prostate; SK-MEL-28 melanoma; CAKI-1 renal; PC-3 prostate; SNB-75 CNS; HT29 colon; OVCAR-5 ovarian; M14 melanoma.
What all share (test): DTP human tumour cell line panel, 48 h

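Where inhibition never reached the appropriate level, the endpoint shown equals the highest concentration tested. Otherwise, values were interpolated linearly from a five-concentration, 48-hour dose response in 96-well plates. Here, GI50 denotes the concentration required for 50% inhibition of growth. TGI denotes the concentration required for complete inhibition of growth.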

For the compound `C=C1C(=O)O[C@H]2[C@H]1CC/C(Cn1cc(-c3ccsc3)nn1)=C\CC[C@@]1(C)O[C@@H]21`, the GI50 (usually the concentration at which growth is held to half of that of the control) was 3.79 µM in the test with NCI/ADR-RES ovarian; 1.61 µM with MALME-3M melanoma; 1.43 µM with DU-145 prostate; 1810 nM with SK-MEL-28 melanoma; 1.06 µM in the test on CAKI-1 renal; 4.21 µM with PC-3 prostate. Besides, the GI50 is 3.23 µM in the test with SNB-75 CNS, 1.66 µM in the test on HT29 colon, 2.29 µM in the test with OVCAR-5 ovarian and 1.93 µM with M14 melanoma. Further, the total growth inhibition concentration (TGI) (commonly the concentration at which net growth stops) in the test with NCI/ADR-RES ovarian came out at 16.9 µM; in the test with MALME-3M melanoma, 3.34 µM; in the test with DU-145 prostate, 2.88 µM; in the test with SK-MEL-28 melanoma, 4.02 µM; in the test with CAKI-1 renal, 2.25 µM; in the test with PC-3 prostate it was 14.9 µM. In addition, the total growth inhibition concentration (TGI) worked out at 18.2 µM with SNB-75 CNS, 3.64 µM in the test with HT29 colon, 7.13 µM in the test with OVCAR-5 ovarian and 5.02 µM with M14 melanoma.

Consider `CC(C)=CCc1c(O)c(C(=O)CC(C)C)c(O)c2c(-c3ccccc3)cc(=O)oc12`, for which the GI50 in the test on NCI/ADR-RES ovarian is 9.25 µM; in the test with MALME-3M melanoma it was 10.8 µM; in the test with DU-145 prostate it was 15.5 µM; in the test with SK-MEL-28 melanoma it was 2940 nM; in the test with CAKI-1 renal, 11 µM; in the test with PC-3 prostate it was 5.71 µM. In addition, the results for the GI50 in the test with SNB-75 CNS, in the test on HT29 colon and in the test on M14 melanoma were 9.27 µM, 14.1 µM and 11.5 µM, respectively. Further, the total growth inhibition concentration (TGI) was greater than 50 µM with NCI/ADR-RES ovarian; 33.9 µM in the test with MALME-3M melanoma; greater than 50 µM in the test with DU-145 prostate; greater than 50 µM in the test on SK-MEL-28 melanoma; 48.3 µM in the test with CAKI-1 renal; 39.8 µM in the test with PC-3 prostate. Moreover, the TGI with SNB-75 CNS is 41.9 µM; in the test on HT29 colon, greater than 50 µM; in the test on M14 melanoma, greater than 50 µM.

Turning to `NC(N)=NC(N)=Nc1ccc(S(N)(=O)=O)cc1`, the TGI in the test with NCI/ADR-RES ovarian, with MALME-3M melanoma, with DU-145 prostate, with SK-MEL-28 melanoma, in the test with CAKI-1 renal and with PC-3 prostate was greater than 100 µM throughout. The TGI in the test on SNB-75 CNS, in the test on HT29 colon, with OVCAR-5 ovarian and in the test on M14 melanoma was greater than 100 µM throughout.

`CNC(=S)N(C1CCCCC1)C1CCCCC1`: the TGI in the test on NCI/ADR-RES ovarian, in the test on MALME-3M melanoma, in the test on DU-145 prostate, in the test on SK-MEL-28 melanoma, with CAKI-1 renal and in the test on PC-3 prostate was greater than 100 µM throughout. Besides, the concentration for total growth inhibition (TGI) with SNB-75 CNS, in the test on HT29 colon, in the test on OVCAR-5 ovarian and with M14 melanoma was greater than 100 µM in each case.

For `CC(=Nc1ccccc1)C1=C(O)C(Cc2ccc(F)cc2)NC1=O` (stereo not drawn), the GI50 with NCI/ADR-RES ovarian is 0.42 µM; in the test on MALME-3M melanoma, 0.661 µM; in the test with DU-145 prostate, 2.12 µM; in the test on SK-MEL-28 melanoma it was 2630 nM; in the test on CAKI-1 renal, 2.9 µM; with PC-3 prostate it was 0.894 µM. Besides, the results for the GI50 in the test on HT29 colon, in the test on OVCAR-5 ovarian and in the test with M14 melanoma were 0.339 µM, 5.21 µM and 0.435 µM, respectively. Also, the TGI with NCI/ADR-RES ovarian was 13.8 µM; in the test on MALME-3M melanoma, greater than 100 µM; with DU-145 prostate it was greater than 100 µM; in the test on SK-MEL-28 melanoma, greater than 100 µM; with CAKI-1 renal, greater than 100 µM; in the test on PC-3 prostate it was greater than 100 µM. The TGI in the test with HT29 colon, with OVCAR-5 ovarian and in the test on M14 melanoma was greater than 100 µM in each case.

For the compound `CN1CCN(c2ccc(-c3cccc(CN4CCOCC4)c3)cc2NC(=O)c2c[nH]c(=O)cc2C(F)(F)F)CC1`, the GI50 was greater than 100 µM in the test on NCI/ADR-RES ovarian; 21.6 µM in the test on MALME-3M melanoma; 62.5 µM in the test on DU-145 prostate; 37100 nM with SK-MEL-28 melanoma; 32.3 µM with PC-3 prostate; 13.6 µM in the test with SNB-75 CNS. The values for the GI50 in the test on HT29 colon, with OVCAR-5 ovarian and in the test on M14 melanoma were 17.9 µM, greater than 100 µM and 17.2 µM, respectively. For the same compound, the total growth inhibition concentration (TGI) is greater than 100 µM in the test on NCI/ADR-RES ovarian; 51.4 µM in the test on MALME-3M melanoma; greater than 100 µM in the test on DU-145 prostate; greater than 100 µM in the test on SK-MEL-28 melanoma; greater than 100 µM in the test with PC-3 prostate; 99.8 µM in the test with SNB-75 CNS. For the same compound, the TGI was 58.3 µM with HT29 colon, greater than 100 µM in the test on OVCAR-5 ovarian and 36.9 µM with M14 melanoma.

`COc1cc(=O)oc(/C=C/C=C/C=C/C(C)=C\C2(C)OC(C)C(C)(O)C2O)c1C` (stereo not drawn): the total growth inhibition concentration (TGI) in the test with NCI/ADR-RES ovarian, in the test with DU-145 prostate, in the test with SK-MEL-28 melanoma, with CAKI-1 renal, in the test with PC-3 prostate and with SNB-75 CNS was greater than 100 µM each time. The TGI with HT29 colon, in the test on OVCAR-5 ovarian and with M14 melanoma was greater than 100 µM each time.

Turning to `N#CC(C(=O)O)C(c1c(Cl)cccc1Cl)C(C#N)C(=O)O` (stereo not drawn), the concentration for total growth inhibition (TGI) in the test on NCI/ADR-RES ovarian, in the test on MALME-3M melanoma, in the test with DU-145 prostate, with SK-MEL-28 melanoma, in the test with CAKI-1 renal and in the test with PC-3 prostate was greater than 100 µM in each case. Also, the concentration for total growth inhibition (TGI) with HT29 colon, with OVCAR-5 ovarian and with M14 melanoma was greater than 100 µM in each case.

As for `CC1(C)OC2COC(c3[nH]nc4c(=O)[nH]c(=O)[nH]c34)C2O1` (stereo not drawn), the TGI with NCI/ADR-RES ovarian, in the test with MALME-3M melanoma, in the test with DU-145 prostate, in the test on SK-MEL-28 melanoma, in the test with CAKI-1 renal and in the test on PC-3 prostate was greater than 100 µM throughout. Further, the TGI with HT29 colon, with OVCAR-5 ovarian and with M14 melanoma was greater than 100 µM in each case.

Regarding `COc1cccc(NC(=O)c2ccc(NC3=C(Cl)C(=O)N(Cc4ccccc4)C3=O)cc2)c1`, the GI50 in the test on NCI/ADR-RES ovarian is 16.3 µM; in the test on MALME-3M melanoma, 16 µM; with DU-145 prostate, 19 µM; in the test with SK-MEL-28 melanoma, 11500 nM; in the test on CAKI-1 renal, 15.3 µM; with PC-3 prostate, 13.1 µM. In addition, the GI50 was 5.74 µM with HT29 colon, 27.5 µM in the test with OVCAR-5 ovarian and 17.3 µM in the test with M14 melanoma. Moreover, the TGI in the test on NCI/ADR-RES ovarian came to 29.8 µM; in the test on MALME-3M melanoma it was 42.1 µM; with DU-145 prostate, 38.6 µM; with SK-MEL-28 melanoma, 28 µM; with CAKI-1 renal, 30.9 µM; in the test on PC-3 prostate, 28.5 µM. In addition, the TGI came out at 17.4 µM in the test on HT29 colon, 65.7 µM in the test with OVCAR-5 ovarian and 31.7 µM with M14 melanoma.

As for `CCOC(=O)c1csc(-c2nc(CCNC(=O)c3ccccc3)sc2Cl)n1`, the TGI in the test with NCI/ADR-RES ovarian, in the test with MALME-3M melanoma, with DU-145 prostate, in the test on SK-MEL-28 melanoma, in the test with PC-3 prostate and with SNB-75 CNS was greater than 100 µM in each case. Also, the TGI in the test with HT29 colon, in the test with OVCAR-5 ovarian and in the test on M14 melanoma was greater than 100 µM in each case.
